Test results reported in US20210238192A1, “VASCULAR ADHESION PROTEIN-1 (VAP-1) MODULATORS AND THERAPEUTIC USES THEREOF” (Blade Therapeutics, Inc., priority 2018, published 2021).
Structures can show the parent of a compound that is named as a salt.

Legend:
Format in all cases: biochemical
Human VAP-1 = biological target: T1, Human VAP-1 (Homo sapiens, UniProt Q16853); experiment: VAP-1 inhibition assay (Amplex Red continuous fluorescence assay); conditions: 30 min pre-incubation at 37° C.; substrate benzylamine; read-out: Human VAP-1 IC50
T1 sequence (Q16853 1-763): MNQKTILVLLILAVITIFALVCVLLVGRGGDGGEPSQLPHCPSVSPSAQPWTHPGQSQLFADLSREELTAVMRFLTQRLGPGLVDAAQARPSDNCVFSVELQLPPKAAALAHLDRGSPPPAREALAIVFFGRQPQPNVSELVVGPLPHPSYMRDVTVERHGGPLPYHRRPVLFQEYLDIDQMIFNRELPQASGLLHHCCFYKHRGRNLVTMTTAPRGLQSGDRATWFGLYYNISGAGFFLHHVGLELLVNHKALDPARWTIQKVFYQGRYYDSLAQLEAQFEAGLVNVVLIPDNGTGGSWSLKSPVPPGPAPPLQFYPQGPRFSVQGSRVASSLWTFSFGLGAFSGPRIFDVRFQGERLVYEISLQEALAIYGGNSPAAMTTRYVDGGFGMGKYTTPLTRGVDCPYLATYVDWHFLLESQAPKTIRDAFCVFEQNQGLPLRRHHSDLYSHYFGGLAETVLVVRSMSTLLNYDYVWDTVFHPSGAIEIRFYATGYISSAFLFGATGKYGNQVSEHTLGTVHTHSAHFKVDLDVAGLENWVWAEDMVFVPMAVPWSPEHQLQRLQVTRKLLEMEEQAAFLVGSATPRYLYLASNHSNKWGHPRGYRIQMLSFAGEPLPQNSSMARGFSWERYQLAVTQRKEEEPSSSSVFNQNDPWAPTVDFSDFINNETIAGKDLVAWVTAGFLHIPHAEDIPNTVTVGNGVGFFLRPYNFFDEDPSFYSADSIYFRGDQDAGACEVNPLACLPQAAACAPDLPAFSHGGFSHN
Protocol: (§1) VAP-1, DAO, MAO-A, MAO-B, and HRP activity and inhibition thereof was assessed by means of a continuous fluorescence assay. The Amplex Red Hydrogen Peroxide/Peroxidase Assay (ThermoFisher) was optimized for detecting amine oxidase (AO) activity. In an enzyme-coupled reaction, the H2O2 generated by AO reacts 1:1 with Amplex Red reagent to produce fluorescent product resorufin.
(§2) Assays were typically setup in black 384-well plates using automated liquid handling as follows. VAP-1/MAO assay buffer contains […] sodium phosphate, pH 7.4; DAO assay buffer contains 50 mM HEPES, pH 7.5; HRP assay buffer contains 100 mM CHES, 1 mM MgCl2, 50 mM NaCl, 0.05% BSA, pH 9.0. Inhibitors were serially diluted in DMSO and used to setup 2× mixtures with AO in the aforementioned buffer. After 30 min pre-incubation at 37° C. (VAP-1, HRP) or room temp (DAO, MAO), the reaction was initiated by adding a 2× mix of Amplex Red, HRP (coupling enzyme), and substrate (benzylamine, histamine, tyramine, benzylamine, H2O2, for VAP-1, DAO, MAO-A, MAO-B, and HR, respectively) in the same buffer. Reaction progress curve data were typically collected for 5 min using excitation/emission wavelengths of 510 nm/565 nm on FLIPR-Tetra plate readers (Molecular Devices Inc). Reaction rates were calculated from progress curve slopes typically over 60-150 sec. Dose response curves (rate vs. log inhibitor concentration) were typically fit to a 4-parameter logistic function to extract IC50 values.

Human MAO-A = biological target: T2, Human MAO-A (Homo sapiens, UniProt P21397); experiment: MAO-A inhibition (Amplex Red continuous fluorescence assay); conditions: 30 min pre-incubation at room temp; substrate tyramine; read-out: Human MAO-A IC50
T2 sequence (P21397 1-527): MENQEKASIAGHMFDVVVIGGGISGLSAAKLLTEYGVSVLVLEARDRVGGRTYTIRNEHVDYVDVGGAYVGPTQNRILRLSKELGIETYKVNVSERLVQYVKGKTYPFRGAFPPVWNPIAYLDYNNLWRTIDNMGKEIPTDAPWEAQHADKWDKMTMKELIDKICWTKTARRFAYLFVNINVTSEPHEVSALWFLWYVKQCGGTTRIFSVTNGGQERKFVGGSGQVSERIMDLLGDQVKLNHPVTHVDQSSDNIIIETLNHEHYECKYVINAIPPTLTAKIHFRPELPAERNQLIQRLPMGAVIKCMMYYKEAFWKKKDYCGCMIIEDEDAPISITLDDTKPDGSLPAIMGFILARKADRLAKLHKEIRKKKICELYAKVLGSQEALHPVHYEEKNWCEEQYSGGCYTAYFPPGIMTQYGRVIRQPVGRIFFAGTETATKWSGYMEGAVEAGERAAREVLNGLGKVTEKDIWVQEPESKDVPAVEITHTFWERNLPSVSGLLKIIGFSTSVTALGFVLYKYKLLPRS
Protocol: as §1, §2

Human MAO-B = biological target: T3, Human MAO-B (Homo sapiens, UniProt P27338); experiment: MAO-B inhibition (Amplex Red continuous fluorescence assay); conditions: 30 min pre-incubation at room temp; substrate benzylamine; read-out: Human MAO-B IC50
T3 sequence (P27338 1-520): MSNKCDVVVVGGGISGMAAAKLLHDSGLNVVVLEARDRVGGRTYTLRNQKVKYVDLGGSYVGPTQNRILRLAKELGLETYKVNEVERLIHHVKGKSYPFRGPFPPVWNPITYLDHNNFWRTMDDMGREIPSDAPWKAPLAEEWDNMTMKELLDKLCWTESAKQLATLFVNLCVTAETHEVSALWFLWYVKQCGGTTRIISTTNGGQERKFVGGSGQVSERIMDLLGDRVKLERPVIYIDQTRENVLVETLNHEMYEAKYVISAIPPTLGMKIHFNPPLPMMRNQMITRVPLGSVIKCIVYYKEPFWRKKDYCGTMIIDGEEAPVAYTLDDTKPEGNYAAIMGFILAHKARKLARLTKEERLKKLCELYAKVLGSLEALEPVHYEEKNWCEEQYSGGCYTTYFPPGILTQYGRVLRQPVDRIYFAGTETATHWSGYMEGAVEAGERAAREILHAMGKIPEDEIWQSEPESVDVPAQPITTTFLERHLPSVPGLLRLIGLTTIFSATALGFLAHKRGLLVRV
Protocol: as §1, §2

Human DAO = biological target: T4, Human DAO (Homo sapiens, UniProt P19801); experiment: DAO inhibition (Amplex Red continuous fluorescence assay); conditions: 30 min pre-incubation at room temp; substrate histamine; read-out: Human DAO IC50
T4 sequence (P19801 20-751): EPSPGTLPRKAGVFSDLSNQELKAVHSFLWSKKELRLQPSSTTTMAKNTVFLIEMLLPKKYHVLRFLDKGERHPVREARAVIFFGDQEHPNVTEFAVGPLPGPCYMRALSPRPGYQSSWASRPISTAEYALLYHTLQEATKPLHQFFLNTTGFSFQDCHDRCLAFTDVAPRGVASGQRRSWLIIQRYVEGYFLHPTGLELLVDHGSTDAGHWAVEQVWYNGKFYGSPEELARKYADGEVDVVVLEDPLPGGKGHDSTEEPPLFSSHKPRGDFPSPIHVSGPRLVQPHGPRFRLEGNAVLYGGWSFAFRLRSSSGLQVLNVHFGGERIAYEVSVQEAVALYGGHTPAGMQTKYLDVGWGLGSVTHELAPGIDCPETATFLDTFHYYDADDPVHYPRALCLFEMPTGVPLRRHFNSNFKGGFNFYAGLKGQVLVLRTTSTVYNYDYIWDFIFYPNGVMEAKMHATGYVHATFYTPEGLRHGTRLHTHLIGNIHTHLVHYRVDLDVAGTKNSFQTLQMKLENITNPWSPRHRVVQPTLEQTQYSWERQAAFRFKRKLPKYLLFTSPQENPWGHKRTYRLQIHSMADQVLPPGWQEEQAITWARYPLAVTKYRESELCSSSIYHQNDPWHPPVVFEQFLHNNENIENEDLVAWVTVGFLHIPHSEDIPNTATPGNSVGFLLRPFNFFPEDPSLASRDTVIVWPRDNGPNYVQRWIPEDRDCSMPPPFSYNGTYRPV
Protocol: as §1, §2

| Compound | IC50 (Human VAP-1) [µM] | IC50 (Human MAO-A) [µM] | IC50 (Human MAO-B) [µM] | IC50 (Human DAO) [µM] |
| --- | --- | --- | --- | --- |
| NC/C(=C\F)Cn1ccc2ccccc21 [Compound 15, (E)-2-((1H-indol-1-yl)methyl)-3-fluoroprop-2-en-1-amine hydrochloride] | < 3 | < 3 | < 3 | > 10 |
| NC/C(=C\F)CNC(=O)c1ccccc1 [Compound 21, (E)-N-(2-(aminomethyl)-3-fluoroalkyl)benzamide hydrochloride] | < 3 | 3 to 10 | > 10 | > 10 |
| CCNC(=O)N(C)c1ccc(OC/C(=C/F)CN)cc1 [Compound 23, (E)-1-(4-((2-(aminomethyl)-3-fluoroalkyl)oxy)phenyl)-3-ethyl-1-methylurea hydrochloride] | < 3 | > 10 | 3 to 10 | > 10 |
| CCN(CC)C(=O)Nc1ccc(OC/C(=C/F)CN)cc1 [Compound 24, (E)-3-(4-((2-(aminomethyl)-3-fluoroalkyl)oxy)phenyl)-1,1-diethylurea hydrochloride] | < 3 | 3 to 10 | < 3 | > 10 |
| NC/C(=C\F)COc1ccc(-c2ncco2)cc1 [Compound 25, (E)-3-fluoro-2-((4-(oxazol-2-yl)phenoxy)methyl)prop-2-en-1-amine hydrochloride] | < 3 | 3 to 10 | < 3 | < 3 |
| NC/C(=C\F)CNCc1ccccc1 [Compound 26, (E)-N^1-benzyl-2-(fluoromethylene)propane-1,3-diamine] | < 3 | 3 to 10 | < 3 | > 10 |
| Cn1ccnc1-c1ccc(OC/C(=C\F)CN)cc1 [Compound 28, hydrochloride] | < 3 | > 10 | < 3 | < 3 |
| NC/C(=C\F)COc1ccc(-c2cocn2)cc1 [Compound 29, (E)-3-fluoro-2-((4-(oxazol-4-yl)phenoxy)methyl)prop-2-en-1-amine hydrochloride] | < 3 | < 3 | < 3 | < 3 |

The next lines start with the values.

| IC50 (Human VAP-1) [µM] | IC50 (Human MAO-A) [µM] | IC50 (Human MAO-B) [µM] | IC50 (Human DAO) [µM] | Compound |
| --- | --- | --- | --- | --- |
| < 3 | < 3 | < 3 | < 3 | NC/C(=C/F)COc1ccc(-c2nc3ccccc3[nH]2)cc1 [Compound 11, (Z)-2-((4-(1H-benzo[d]imidazol-2-yl)phenoxy)methyl)-3-fluoroprop-2-en-1-amine hydrochloride] |
| < 3 | < 3 | < 3 | 3 to 10 | CCOC(=O)Nc1ccc(OC/C(=C/F)CN)cc1 [Compound 13] |
| < 3 | < 3 | < 3 | 3 to 10 | NC/C(=C\F)COc1cccc2c1OCO2 [Compound 14, (E)-2-((benzo[d][1,3]dioxol-4-yloxy)methyl)-3-fluoroprop-2-en-1-amine hydrochloride] |
| < 3 | < 3 | < 3 | < 3 | NC/C(=C/F)COc1cccc2c1OCO2 [Compound 16, (Z)-2-((benzo[d][1,3]dioxol-4-yloxy)methyl)-3-fluoroprop-2-en-1-amine hydrochloride] |
| < 3 | < 3 | < 3 | 3 to 10 | CC(C)NC(=O)Nc1ccc(OC/C(=C/F)CN)cc1 [Compound 18, (E)-1-(4-((2-(aminomethyl)-3-fluoroalkyl)oxy)phenyl)-3-isopropylurea hydrochloride] |
| < 3 | 3 to 10 | < 3 | < 3 | NC/C(=C\F)COc1ccc(-c2nccs2)cc1 [Compound 19, (E)-3-fluoro-2-((4-(thiazol-2-yl)phenoxy)methyl)prop-2-en-1-amine hydrochloride] |
| < 3 | < 3 | < 3 | < 3 | NC/C(=C/F)COc1ccc(-c2nccs2)cc1 [Compound 20, (Z)-3-Fluoro-2-((4-(Thiazol-2-Yl)Phenoxy)Methyl)Prop-2-En-1-Amine Hydrochloride] |
